Laboratory results from paper PMC7170299, “Design, synthesis, molecular modelling and biological evaluation of novel 3-(2-naphthyl)-1-phenyl-1H-pyrazole derivatives as potent antioxidants and 15-Lipoxygenase inhibitors” (Journal of Enzyme Inhibition and Medicinal Chemistry, 2020).

Key:
[1] = tested on: lipid peroxidation (MDA) in liver; test: In vivo lipid peroxide level (TBARS/MDA) in liver homogenate; parameters: species or system male Wistar albino rats; conditions: rat liver; 100 mg/kg orally for 3 days; mean ± SEM, n = 6
Experimental: The complete progress of the experiment was conducted using male Wistar albino rats (200–250 g), delivered by the Institutional Breeding House, Egypt, reared and maintained in the animal house of the institution. The animals had free access to food and water ad libitum and maintained in a controlled environment under standard conditions of temperature and humidity with an alternating 12 h light and dark cycle for about a week for acclimatization. The protocol of the study was approved by the Animal Ethics Committee of the Faculty of Pharmacy, Helwan University (ethical code number: 05A2019; date: October 2019). The study was conducted in accordance with the EC, directive 86/609/EEC for animal experiments.
Rats are weighed at the beginning and at the end of experiment. Fifty-four male albino rats (n=6) were divided into nine different groups. Group I served as a control group and treated with the same volume vehicle only. Group II treated with 100 mg/kg of Ascorbic acid as standard antioxidant drug. Groups (III–IX) orally administered 100 mg/kg of compounds 3a, 4e, 5b, 5c, 6a, 6c, 6e, respectively, for 3 days. The animals were sacrificed by cervical dislocation 24 h after the last dose. Sacrificing is carried out at the same time of the day, to avoid the circadian variation in the level of tissue GSH[53]. Each liver was excised, weighed, rinsed in ice-cold normal saline and frozen for not more than 72 h await analysis of endogenous antioxidant status (GSH levels and CAT activity) and lipid peroxide concentrations. For performing biochemical assays, a 10% liver homogenate in 10 mM phosphate buffer was prepared using tissue homogeniser (Glas-Col®, Cat no.099C K6424, TERRE HAUTE, USA).
Lipid peroxidation level in the liver homogenates was determined as thiobarbituric acid reactive substances (TBARS) by measuring malondialdehyde ‘MDA’ level according to Mihara and Uchiyama[56]. Briefly, 0.5 mL supernatant of tissue homogenate was mixed with 0.6% thiobarbituric acid (TBA) and 1% orthophosphoric acid solution, and heated in a boiling water bath for 45 min. The pink-coloured chromogen formed by the reaction of TBA with MDA was extracted by n-butanol and measured at 535 nm. The results were expressed as nmol/g tissue.

Soybean 15-LOX enzyme = target: T1, Soybean 15-LOX enzyme (Glycine max, UniProt P08170); test: In vitro lipoxygenase inhibition (Cayman lipoxygenase inhibitor screening assay kit); type: biochemical; conditions: for 15-LOX inhibition potency relative to quercetin: folds that of quercetin; for IC50: mean ± SEM of three experiments, substrate arachidonic acid
T1 construct: purchased Cayman Chemical 760700
T1 sequence (P08170 1-839): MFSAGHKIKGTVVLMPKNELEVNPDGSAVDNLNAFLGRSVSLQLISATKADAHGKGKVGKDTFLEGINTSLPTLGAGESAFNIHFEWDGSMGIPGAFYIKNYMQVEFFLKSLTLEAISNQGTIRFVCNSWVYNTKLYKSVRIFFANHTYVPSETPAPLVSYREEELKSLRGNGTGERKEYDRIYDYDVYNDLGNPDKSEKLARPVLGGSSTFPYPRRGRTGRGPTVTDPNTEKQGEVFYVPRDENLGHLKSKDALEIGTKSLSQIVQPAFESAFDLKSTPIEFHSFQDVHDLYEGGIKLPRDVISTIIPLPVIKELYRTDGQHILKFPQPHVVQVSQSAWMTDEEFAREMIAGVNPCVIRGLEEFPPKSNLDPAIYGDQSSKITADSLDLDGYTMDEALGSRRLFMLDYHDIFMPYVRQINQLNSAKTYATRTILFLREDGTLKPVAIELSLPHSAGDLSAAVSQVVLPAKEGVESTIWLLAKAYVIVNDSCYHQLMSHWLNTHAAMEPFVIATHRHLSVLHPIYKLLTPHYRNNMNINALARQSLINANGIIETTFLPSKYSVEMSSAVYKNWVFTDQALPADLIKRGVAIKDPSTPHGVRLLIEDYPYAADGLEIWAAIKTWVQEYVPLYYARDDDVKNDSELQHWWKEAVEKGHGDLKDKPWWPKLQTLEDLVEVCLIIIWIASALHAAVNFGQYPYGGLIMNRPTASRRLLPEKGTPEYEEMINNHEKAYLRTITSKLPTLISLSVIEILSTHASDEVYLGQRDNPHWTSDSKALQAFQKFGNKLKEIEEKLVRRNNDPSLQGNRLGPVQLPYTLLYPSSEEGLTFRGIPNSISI
Experimental: The assay was performed using Cayman’s lipoxygenase inhibitor screening assay kit (Catalog No. 760700, Cayman Chemical, USA) according to the manufacturer’s instructions. Briefly, 90 µL of 15-LOX was pipetted into a 96-well plate. Next, 10 µL of test compound at concentrations (2.5, 5.0 and 10 µM) dissolved in DMSO were added to each well. The reaction was initiated by adding 10 µL substrate (AA) and the plate was placed on a shaker for at least 5 minutes. Finally, 100 µL of chromogen (prepared according to manufacturer’s instructions) was added to each well to stop enzyme catalysis and develop the reaction. 100 µL of Assay buffer (0.1 M Tris-HCl, pH7.4) was used in blank wells. […] The absorbance of the solution was measured at λ 490–500 nm. The percentage inhibition was calculated according to the following equation: % inhibition =[(IA−Ainhibitor sample)/IA]×100 where (IA) is the 100% initial activity and (Ainhibitor sample) is the absorbance of the test sample. Dose–response curve was plotted between % inhibition and the drug concentration. The non-linear dose–response curve was used for calculating drug concentration showing 50% enzyme inhibition.

[2] = NO scavenging assay (sodium nitroprusside / Griess reagent); conditions: mean ± SEM of three experiments; 90 min, 546 nm
Experimental: The NO scavenging activity of all synthesized compounds was measured as previously described by Ho et al.[50] Briefly, 50 µL of different concentrations of the tested compounds (12.5, 25, 50,100, and 200 µg/mL) were pipetted into a 96-well plate. Then, 50 µL of 10-mM sodium nitroprussides dissolved in phosphate-buffered saline PBS (pH 7.4) were added to each well and the plate was incubated for 90 min at room temperature. Next, an equal volume of Griess reagent (1% of sulphanilamide and 0.1% of naphthyl ethylene diamine in 2.5% […]) was added to each well to measure the nitrite content. The absorbance of the formed pink-coloured chromophore was measured at λ 546 nm. DMSO and ascorbic acid were used as the negative and positive control, respectively. All tests were performed in triplicate. The percentage of NO scavenging activity was calculated according to the following equation: % of NO scavenging=[(Acontrol−Asample)/Acontrol]×100 where Acontrol is the absorbance of the control reaction (with all reagents except the test compound), and Asample is the absorbance of the test sample.

NC(=S)N1N=C(c2ccccc2)CC1c1cn(-c2ccccc2)nc1-c1ccc2ccccc2c1 (centres unmarked) [Compound 6a, 3′-Naphthalen-2-yl-5,1′-diphenyl-3,4-dihydro-1’H-[3,4′]bipyrazolyl-2-carbothioic acid amide]
TBARS [1]: 0.348 ± 0.03 nmol/g tissue | 15-LOX inhibition potency relative to quercetin (Soybean 15-LOX enzyme): 2.2 folds | IC50 (Soybean 15-LOX enzyme): 1500 ± 60 nM | NO IC50 [2]: 36.37 ± 0.75 µg/mL

c1ccc(C2=NNC(c3cn(-c4ccccc4)nc3-c3ccc4ccccc4c3)C2)cc1 (centres unmarked) [Compound 3a, 3′-Naphthalen-2-yl-5,1′-diphenyl-3,4-dihydro-2H,1’H-[3,4′]bipyrazole]
TBARS [1]: 0.350 ± 0.05 nmol/g tissue | IC50 (Soybean 15-LOX enzyme): 2230 ± 70 nM | NO IC50 [2]: 27.65 ± 1.53 µg/mL

Cc1ccc(C2=NN(C(N)=S)C(c3cn(-c4ccccc4)nc3-c3ccc4ccccc4c3)C2)cc1 (centres unmarked) [Compound 6c, 3′-Naphthalen-2-yl-1′-phenyl-5-p-tolyl-3,4-dihydro-1’H-[3,4′]bipyrazolyl-2-carbo thioic acid amide]
TBARS [1]: 0.428 ± 0.02 nmol/g tissue | IC50 (Soybean 15-LOX enzyme): 2100 ± 60 nM | NO IC50 [2]: 23.79 ± 0.83 µg/mL

COc1ccc(C2=NOC(c3cn(-c4ccccc4)nc3-c3ccc4ccccc4c3)C2)cc1 (centres unmarked) [Compound 5b, 3-(4-Methoxyphenyl)-5-(3-naphthalen-2-yl-1-phenyl-1H-pyrazol-4-yl)-4,5-dihydro isoxazole]
TBARS [1]: 0.330 ± 0.02 nmol/g tissue | IC50 (Soybean 15-LOX enzyme): 4370 ± 90 nM | NO IC50 [2]: 75.53 ± 1.43 µg/mL

Clc1ccc(C2=NN(c3ccccc3)C(c3cn(-c4ccccc4)nc3-c3ccc4ccccc4c3)C2)cc1Cl (centres unmarked) [Compound 4e, 5-(3,4-Dichlorophenyl)-3′-naphthalen-2-yl-2,1′-diphenyl-3,4-dihydro-2H,1’H-[3,4′]-bipyrazole]
TBARS [1]: 0.402 ± 0.04 nmol/g tissue | IC50 (Soybean 15-LOX enzyme): 3530 ± 70 nM | NO IC50 [2]: 57.01 ± 1.29 µg/mL

Cc1ccc(C2=NOC(c3cn(-c4ccccc4)nc3-c3ccc4ccccc4c3)C2)cc1 (centres unmarked) [Compound 5c, 5-(3-Naphthalen-2-yl-1-phenyl-1H-pyrazol-4-yl)-3-p-tolyl-4,5-dihydroisoxazole]
TBARS [1]: 0.346 ± 0.01 nmol/g tissue | IC50 (Soybean 15-LOX enzyme): 4230 ± 70 nM | NO IC50 [2]: 38.99 ± 1.31 µg/mL

NC(=S)N1N=C(c2ccc(Cl)c(Cl)c2)CC1c1cn(-c2ccccc2)nc1-c1ccc2ccccc2c1 (centres unmarked) [Compound 6e]
TBARS [1]: 0.344 ± 0.05 nmol/g tissue | 15-LOX inhibition potency relative to quercetin (Soybean 15-LOX enzyme): 2.1 folds | IC50 (Soybean 15-LOX enzyme): 1570 ± 30 nM | NO IC50 [2]: 71.39 ± 1.25 µg/mL
